The values below come from patent publication US9345247B2, “Azaindole carboxylic acid amides and azaindole thiocarboxylic acid amides for use as insecticides and acaricides” (BAYER CROPSCIENCE AG, priority 2012, dated 2016).

Series [1] has as its system larvae of the mustard beetle (Phaedon cochleariae). The experiment in a line: Phaedon cochleariae spray test (PHAECO). Type of series: in vivo. The note with it: spray, after 7 days; for pest or weed control at 100 g/ha: Phaedon cochleariae, 168 h, read-out: efficacy. The procedure: Phaedon cochleariae—Spray Test (PHAECO)
(§1) To produce a suitable preparation of active compound, 1 part by weight of active compound is mixed with the stated amounts of solvent and emulsifier, and the concentrate is diluted with emulsifier-containing water to the desired concentration.
Discs of Chinese cabbage leaves (Brassica pekinensis) are sprayed with an active compound formulation of the desired concentration and, after drying, populated with larvae of the mustard beetle (Phaedon cochleariae).
After 7 days, the efficacy in % is determined. 100% means that all the beetle larvae have been killed; 0% means that no beetle larvae have been killed.
After the stated period of time, the effect in % is determined 100% means that all the beetle larvae have been killed; 0% means that no beetle larvae have been killed.

The test system of series [2] is caterpillars of the armyworm (Spodoptera frugiperda). Put plainly: Spodoptera frugiperda spray test (SPODFR). It counts as in vivo. Conditions: 100 g/ha, spray, after 7 days. The procedure: Spodoptera frugiperda—Spray Test (SPODFR)
To produce a suitable active compound formulation, 1 part by weight of active compound is mixed with the stated amounts of solvent and emulsifier, and the concentrate is diluted with emulsifier-containing water to the desired concentration.
Leaf discs of maize (Zea mays) are sprayed with an active compound formulation of the desired concentration and, after drying, populated with caterpillars of the armyworm (Spodoptera frugiperda).
After 7 days, the efficacy in % is determined. 100% means that all the caterpillars have been killed; 0% means that no caterpillars have been killed.
as §1
Leaf discs of maize (Zea mays) are sprayed with an active compound preparation of the desired concentration and, after drying, populated with caterpillars of the armyworm (Spodoptera frugiperda).
After the stated period of time, the effect in % is determined. 100% means that all the caterpillars have been killed; 0% means that no caterpillars have been killed.

A short description of series [3]: log P by HPLC on reversed-phase column (C18), EEC directive 79/831 Annex V.A8. It counts as physicochemical. The note with it: for chromatographic logP: reversed-phase HPLC column (C18). How it is done:
a) The determination of the W by LC-MS in the acidic range is effected at pH 2.7, acetonitrile (contains 0.1% formic acid) and water as eluents; linear gradient from 10% acetonitrile to 95% acetonitrile, instrument: Agilent 1100 LC-System, Agilent MSD System, HTS PAL. The log P values reported in the tables and Preparation Examples above were determined in accordance with EEC directive 79/831 Annex V.A8 by HPLC (High Performance Liquid Chromatography) using a reversed-phase column (C18). Temperature 43° C. The calibration is effected with unbranched alkan-2-ones (having 3 to 16 carbon atoms), for which the log P values are known.

Where [4] appears, read: HPLC, acidic range pH 2.7, 43° C.
[5] abbreviates: HPLC, acidic range pH 2.7, 43° C., read-out: log p.

The structures appear in SMILES notation. Read-outs that look alike come from different tables or passages of the source.

Turning to `CCn1c(C(=O)NC(c2ccc(F)c(Cl)c2)C(F)(F)F)cc2cc(C(=O)NC3CC3)c(C)nc21` (centres unmarked) [Compound 9], the efficacy in series [1] (20 g/ha) and in series [2] was 100% throughout. Also, in series [3] (setting [4]), the log p is 3.39.

With `CCn1c(C(=O)NC(c2cc(Cl)c(F)c(Cl)c2F)C(F)(F)F)cc2cc(C(=O)NC3(C#N)CC3)c(Cl)nc21` (centres unmarked) [Compound 31], the efficacy in series [1] (100 g/ha) and in series [2] was 100% each time. The compound further yielded a log p in series [3] (setting [4]) of 4.32.

For `CCn1c(C(=O)NC(c2ccc(F)c(C(F)(F)F)c2)C(F)(F)F)cc2cc(C(=O)NCc3ccccn3)c(Cl)nc21` (centres unmarked) [Compound 55], the efficacy in series [1] (100 g/ha) is given as 83%. In addition, in series [3] (setting [4]), the log p came to 3.32.

Compound `CCn1c(C(=O)NC(c2cccc(C(F)(F)F)c2)C(F)(F)F)cc2cc(C(=O)NCC3CC3)c(Cl)nc21` (centres unmarked) [Compound 57] displayed an efficacy in series [1] (100 g/ha) of 100%. Also, the log p in series [3] (setting [4]) was determined as 4.06.

`C#CCn1c(C(=O)NC(c2cccc(C(F)(F)F)c2)C(F)(F)F)cc2cc(C(=O)Nc3ccc(Cl)cn3)c(Cl)nc21` (centres unmarked) [Compound 61]: in series [1] (100 g/ha), the efficacy is 83%. Further, the log p in series [3] (setting [4]) came out at 4.49.

In the case of `C#CCn1c(C(=O)NC(c2cc(Cl)c(F)c(Cl)c2)C(F)(F)F)cc2cc(C(=O)NC3CC3)c(Cl)nc21` (centres unmarked) [Compound 68], the efficacy in series [1] (100 g/ha) and in series [2] was 100% in each case. In addition, the log p in series [3] (setting [4]) is on record as 3.85.

For `C#CCn1c(C(=O)NC(c2cc(Cl)c(F)c(Cl)c2F)C(F)(F)F)cc2cc(C(=O)NC3CC3)c(Cl)nc21` (centres unmarked) [Compound 69], the efficacy in series [1] (100 g/ha) and in series [2] was 100% throughout. In addition, the log p in series [3] (setting [4]) stood at 4.01.

On to `C#CCn1c(C(=O)NC(c2ccc(F)c(C(F)(F)F)c2)C(F)(F)F)cc2cc(C(=O)NC3CC3)c(Cl)nc21` (centres unmarked) [Compound 70], for which the efficacy in series [1] (100 g/ha) and in series [2] was 100% each time. Besides, the log p in series [3] (setting [4]) is reported as 3.55.

As for `CCn1c(C(=O)NC(c2cc(Cl)c(F)c(Cl)c2F)C(F)(F)F)cc2cc(C(=O)NC3CC3)c(C)nc21` (centres unmarked) [Compound 71], the efficacy in series [1] (100 g/ha) and in series [2] was 100% throughout. In series [3] (setting [4]), this compound registered a log p of 4.21.

Consider `CCn1c(C(=O)NC(c2cc(Cl)c(F)c(Cl)c2)C(F)(F)F)cc2cc(C(=O)NC3CC3)c(C)nc21` (centres unmarked) [Compound 72], for which the efficacy in series [1] (100 g/ha) and in series [2] was 100% throughout. Moreover, the log p in series [3] (setting [4]) turned out to be 4.00.

On to `CCn1c(C(=O)NC(c2cccc(C(F)(F)F)c2)C(F)(F)F)cc2cc(C(=O)NC3CC3)c(C(F)(F)F)nc21` (centres unmarked) [Compound 73], for which the efficacy in series [1] (100 g/ha) and in series [2] was 100% each time. In series [3] (setting [4]), this compound had a log p of 4.00.

In series [1] (100 g/ha), `CCC(=O)NCc1cc2cc(C(=O)NC(c3cccc(C(F)(F)F)c3)C(F)(F)F)n(CC)c2nc1C` (centres unmarked) [Compound 93] came in with an efficacy of 100%. The same compound showed a log p in series [3] (setting [4]) of 3.45.

In the case of `CCn1c(C(=O)NC(c2cccc(C(F)(F)F)c2)C(F)(F)F)cc2cc(CNC(C)=O)c(C)nc21` (centres unmarked) [Compound 94, 5-(Acetamidomethyl)-1-ethyl-6-methyl-N-{2,2,2-trifluoro-1-[3-(trifluoromethyl)phenyl]ethyl}-1H-pyrrolo[2,3-b]pyridine-2-carboxamide], the pest or weed control at 100 g/ha in series [1] (100 g/ha) is 100%. Besides, the chromatographic logP in series [3] (pH 2.7, final compounds of the synthesis examples, read-out: log P (HPLC-MS)) is 3.16.

Take `CN(C(=O)c1cc2cc(C(=O)NC3CC3)c(Cl)nc2n1C)C(c1cccc(C(F)(F)F)c1)C(F)(F)F` (centres unmarked) [Compound 96]: the pest or weed control at 100 g/ha in series [1] (100 g/ha) turned out to be 100%. Moreover, in series [3] (setting [5]), the chromatographic logP worked out at 3.63.

In the case of `CN(C(=O)c1cc2cc(C(=O)NC3(C#N)CC3)c(Cl)nc2n1C)C(c1cccc(C(F)(F)F)c1)C(F)(F)F` (centres unmarked) [Compound 97], in series [1] (100 g/ha), the pest or weed control at 100 g/ha was found to be 100%. Moreover, in series [3] (setting [5]), the chromatographic logP was 3.59.
